The source of these data is paper PMC11997890, “In Vivo and In Vitro Pharmacokinetic Studies of a Dual Topoisomerase I/II Inhibitor” (ACS Pharmacology & Translational Science, 2025).

By GI50 is commonly meant the concentration that inhibits growth by half. The low end stands for more potent growth inhibition, the high end for less potent growth inhibition. As usually defined, the bioavailability is dose-corrected exposure relative to a reference, in per cent.

SMILES strings stand for the structures. Where “and” joins values, the source holds several entries; their conditions need not be identical. Equal values may be shown once. Read-outs that look alike come from different tables or passages of the source.

Data set [1] is described as follows: In vivo plasma pharmacokinetics after i.v. and p.o. administration of P8-D6. Also noted: species or system Sprague–Dawley rats. The settings on record: for AUC(0-t): read-out: AUC0–10 h (converted). How it is done: The plasma concentration–time profiles and pharmacokinetic parameters of P8-D6 after p.o. and i.v. administration are presented in Figure B and Table .
Compartment models were used to calculate the pharmacokinetic parameters and plasma curves.
Since a pure drug solution of P8-D6 was administered in this study, liberation (release from the dosage form) could be neglected; therefore, first-order kinetics were assumed. […] Based on our in vivo results and assumptions, P8-D6 is first homogeneously distributed in the central compartment after application before being transferred to the peripheral compartment. Elimination occurs via the central compartment. The substance transport into, out of, and between the different compartments is characterized by the macro rate constants.
Starting with the i.v. administration, a two-compartment pharmacokinetic model was chosen that considers the biexponential decay of a fast initial first-order distribution and a slow terminal first-order elimination phase (supplied as Figure S4A,C). By this method, a fictitious initial P8-D6 plasma concentration c 0/i.v. of 4.43 μM at the time of injection was calculated (A (3.27 μM) + B (1.16 μM)). This fictitious plasma concentration corresponds to ∼1% (3.95 μmol in 8.8 mL of the theoretical plasma concentration and matches the plasma protein binding of P8-D6 of about 99% (Figure A). Based on the dose and c 0, a central V c of 0.891 L was calculated. Since the macro rate constant for distribution is considerably greater (37-fold) than the one for elimination, the elimination is the rate-determining step according to first-order kinetics.
To cope with the overlapping curves of absorption and elimination after p.o. administration, compartmental models are used (supplied as Figure S4B,D). However, since only two to three data points exist (depending on the definitive start time of the elimination) during the elimination and distribution phase (120–600 min), no differentiation between these two phases can be described by our data (as shown by the residual method in Figure S4B). Therefore, a one-compartment model according to the Bateman function with both first-order invasion and elimination rates was assumed for the p.o. administration of P8-D6 (supplied as Figure S4D). […] A fictitious initial plasma concentration, c 0/p.o. = 2.21 μM, was calculated.
(§1) Effects of the diet were reduced by fasting the rats overnight prior to P8-D6 application. Blood samples were taken at 5, 15, 30, 60, 120, 180, 300, 360, and 600 min after i.v. application or 30, 60, 90, 120, 240, and 600 min after p.o. application. Immediately afterward, the plasma was collected by centrifugation at 2000 g for 10 min. The rats were housed in metabolic cages to collect the urine in specially attached containers. Urine and feces samples were collected every 2 h. The rats were euthanized by CO2 inhalation. The harvested organs (kidney, spleen, lung, liver, and colon) were weighed and submerged in liquid nitrogen. All collected samples were stored at −80 °C until analysis.
50 μL of plasma was mixed with 100 μL of an ice-cold mixture of acetonitrile/methanol (2:1) and stirred in the vortex for 5 min. The suspension was centrifuged at 15000 g for 10 min, and 50 μL of the supernatant was injected into the HPLC (chapter Chromatographic Conditions). Calibration/control samples were prepared the same way with plasma samples collected from equal Sprague–Dawley rats from nonpharmacological studies. For calibration, the matrix was spiked with a defined concentration of the analyte. Final concentrations ranged from 0 μM to 5 μM. Triple determinations were performed and prepared on each respective day. LoD: 0.02 μM, LoQ: 0.05 μM (plasma).
For data analysis and statistics, Microsoft Excel 2019 and GraphPad Prism (version 10.2, GraphPad Software Inc., San Diego, California), commercially available software, were used. All data are expressed either as mean ± SEM or ± SD. […]

The subject of data set [2] is NCI-60 human tumor cell lines. As to the kind of experiment: NCI-60 DTP Human Tumor Cell Lines Screening. Format: cell-based. As to conditions: for GI50: Homo sapiens, NCI-60 panel.
Data set [3] is described as follows: In vivo tissue distribution of P8-D6 and metabolites. Also noted: species or system Sprague–Dawley rats. Here is the method: Another part of this in vivo study was to identify in vivo metabolites and determine the tissue distribution of P8-D6 (study preparation scheme supplied as Figure S5). […] P8-D6 N-oxide reached c max/p.o. of 0.054 μM at 30 min, and all following results were below the limit of quantification (LoQ).
P8-D6 and P8-D6 mono each constituted about 20–30% of the detected derivatives. The extent of metabolism was, to a certain degree, organ-dependent (spleen > colon > lungs > kidney > liver). The highest concentration of P8-DO was found in the spleen at 8.7 nmol/g and the lowest in the liver at 4.5 nmol/g.
as §1
100 μL of each tissue homogenate/PNS was mixed with 200 μL of an ice-cold mixture of acetonitrile/methanol (2:1) and stirred in the vortex for 5 min. The suspension was centrifuged at 20000 g for 10 min, and 50 μL of the supernatant was injected into the HPLC. The samples from six mice per group were analyzed. Calibration/control samples were prepared the same way with organ samples collected from equal Sprague–Dawley rats from nonpharmacological studies prepared according to chapter Tissue/Enzymes. For calibration, the matrix was spiked with a defined concentration of the analyte. Final concentrations ranged from 0 to 10 nmol/g. Triple determinations were performed and prepared on each respective day. LoD: 0.81 nmol/g (spleen), 0.33 nmol/g (liver), 0.48 nmol/g (lungs), 1.14 nmol/g (colon), 0.38 nmol/g (kidney); LoQ: 2.69 nmol/g (spleen), 1.09 nmol/g (liver), 1.59 nmol/g (lungs), 3.80 nmol/g (colon), 1.28 nmol/g (kidney).

The mark [4] stands for this setting: male, Sprague-Dawley, rat, plasma, iv, 10 mg/kg, after i.v. administration of P8-D6 10 mg/kg BW, read-out: c max/i.v. of metabolite in plasma.
Where [5] appears, read: male, Sprague-Dawley, rat, plasma, po, 50 mg/kg, after p.o. administration of P8-D6 50 mg/kg BW, read-out: c max/p.o. of metabolite in plasma.
Where [6] appears, read: spleen, liver, lungs, kidney, colon after P8-D6.

On to `CNCCOc1nc2c3cnccc3cc(-c3cc(OC)c(OC)c(OC)c3)c2c2ccncc12` [P8-D6 mono], for which the Cmax was found to be 114 nM in data set [1] (setting [4]) and 341 nM in data set [1] (setting [5]). Further, the GI50 in data set [2] was 37 nM. Also, the “proportion of all derivatives detected in tissue” value (shortened to “proportion”) in data set [3] (setting [6]) was 20–30%.
With `COc1cc(-c2cc3ccncc3c3nc(OCC[N+](C)(C)[O-])c4cnccc4c23)cc(OC)c1OC` [P8-D6 N-oxide], the values for the Cmax in data set [1] (setting [4]) and in data set [1] (setting [5]) were 228 nM and 54 nM, respectively. Also, the detection in tissue entry in data set [3] (setting [6]) is “no P8-D6 N-oxide was observed at all”.
As to `COc1cc(-c2cc3ccncc3c3[nH]c(=O)c4cnccc4c23)cc(OC)c1OC` [P8-DO], the detection in plasma entry in data set [1] (after administration of P8-D6) is listed as “no P8-DO was detected”. Further, the efficacy against cancer result in data set [2] (NCI 60 Cell Screening) is reported as “ineffective against cancer”. Also, the concentration in tissue is 4.5 nmol/g in data set [3] (liver (lowest)) and 8.7 nmol/g in data set [3] (spleen (highest)). Also, the “proportion” value in data set [3] (setting [6]) is reported as “about 50%”.
In turn, `COc1cc(-c2cc3ccncc3c3nc(OCCN(C)C)c4cnccc4c23)cc(OC)c1OC` [P8-D6, 6-(N,N-dimethyl-2-aminoethoxy)-11-(3,4,5-trimethoxyphenyl)-pyrido[3,4-c][1,9]-phenanthroline] had a CLi.v. in data set [1] (i.v.) of 6.34 mL/min. In addition, the “apparent volume of distribution” value is on record as 57.69 L/m^2 in data set [1] (i.v.) and 82.92 L/m^2 in data set [1] (p.o.). For the same molecule, the “fictitious plasma concentration as share of theoretical plasma concentration” value in data set [1] (i.v.) is on record as roughly 1%. In data set [1] (i.v.), the “macro rate constant for distribution greater than for elimination” value is given as 37 fold. Also, the c min in data set [1] (i.v. 10 mg/kg BW, plasma, 10 mg/kg) was 0.35 µM and 0.35 ± 0.05 µM; in data set [1] (p.o. 50 mg/kg BW, plasma, 50 mg/kg) it was 0.59 µM and 0.59 ± 0.06 µM. For the same molecule, the CL was 10.66 L/(h m^2) in data set [1] (i.v., total body surface of 0.0357 m^2); 0.24 L/h in data set [1] (p.o.); 6.65 L/(h m^2) in data set [1] (p.o., total body surface of 0.0357 m^2). In addition, the “Macro rate constant ß” value in data set [1] (i.v., two-compartment model) is 0.002 min^–1. Also, in data set [1] (i.v., two-compartment model), the “Macro rate constant α” value was determined as 0.073 min^–1. Besides, the “coefficient A” value in data set [1] (i.v., two-compartment model) was found to be 3.27 µM. For the same molecule, the “coefficient B” value in data set [1] (i.v., two-compartment model) turned out to be 1.16 µM. For the same molecule, in data set [1] (male, Sprague-Dawley, rat, plasma, iv, 10 mg/kg body weight), the clearance is 6.33 mL/min. The half-life was 0.158 h in data set [1] (male, Sprague-Dawley, rat, plasma, iv, 10 mg/kg body weight, i.v., read-out: Initial t 1/2); 5.78 h in data set [1] (male, Sprague-Dawley, rat, plasma, iv, 10 mg/kg body weight, i.v., read-out: Terminal t 1/2); 5.8 h in data set [1] (male, Sprague-Dawley, rat, plasma, iv, 10 mg/kg body weight, i.v., read-out: plasma half-life t 1/2 (converted)); 8.64 h in data set [1] (male, Sprague-Dawley, rat, plasma, po, 50 mg/kg body weight, p.o., read-out: Terminal t 1/2); 8.6 h in data set [1] (male, Sprague-Dawley, rat, plasma, po, 50 mg/kg body weight, p.o., read-out: plasma half-life t 1/2 (converted)). The Vd is 2.06 L and 9.36 L/kg in data set [1] (male, Sprague-Dawley, rat, plasma, iv, 10 mg/kg body weight, i.v., read-out: V d); 2.95 L and 13.4 L/kg in data set [1] (male, Sprague-Dawley, rat, plasma, iv, 10 mg/kg body weight, i.v., read-out: V ss). Moreover, the C0 came out at 4430 nM in data set [1] (male, Sprague-Dawley, rat, plasma, iv, 10 mg/kg body weight, i.v., at the time of injection, two-compartment model, read-out: fictitious initial plasma concentration c 0/i.v.) and 2210 nM in data set [1] (male, Sprague-Dawley, rat, plasma, po, 50 mg/kg body weight, p.o., one-compartment model, read-out: fictitious initial plasma concentration c 0/p.o.). Besides, the Cmax is 3950 ± 420 nM in data set [1] (male, Sprague-Dawley, rat, plasma, iv, 10 mg/kg, i.v. 10 mg/kg BW, plasma, read-out: c max); 1250 nM in data set [1] (male, Sprague-Dawley, rat, plasma, po, 50 mg/kg, p.o. 50 mg/kg BW, compartment model, read-out: c max (calculated)); 1160 nM in data set [1] (male, Sprague-Dawley, rat, plasma, po, 50 mg/kg, p.o. 50 mg/kg BW, plasma, read-out: c max (measured)). Moreover, the Tmax in data set [1] (male, Sprague-Dawley, rat, plasma, iv, 10 mg/kg, i.v. 10 mg/kg BW, read-out: t max) is 0 h; in data set [1] (male, Sprague-Dawley, rat, plasma, po, 50 mg/kg, p.o. 50 mg/kg BW, compartment model, read-out: t max (calculated) (converted)), 1.77 h; in data set [1] (male, Sprague-Dawley, rat, plasma, po, 50 mg/kg, p.o. 50 mg/kg BW, read-out: t max (measured) (converted)), 2 h. Moreover, the AUC(0-t) in data set [1] (male, Sprague-Dawley, rat, plasma, iv, i.v. 10 mg/kg BW) was 7.49 µM·h; in data set [1] (male, Sprague-Dawley, rat, plasma, po, p.o. 50 mg/kg BW) it was 8.03 µM·h. The bioavailability in data set [1] (male, Sprague-Dawley, rat, plasma, iv, i.v. 10 mg/kg BW, read-out: Bioavailability) came out at 100%; in data set [1] (male, Sprague-Dawley, rat, plasma, oral, 50 mg/kg body weight, p.o. 50 mg/kg BW vs i.v. 10 mg/kg BW, read-out: Oral bioavailability) it was 21.5%. In addition, the k el in data set [1] (male, Sprague-Dawley, rat, plasma, po, 50 mg/kg body weight, p.o., one-compartment model, read-out: Macro rate constant k e) came out at 2.17e-05 s⁻¹. This molecule gave a CLp.o. in data set [1] (p.o.) of 3.96 mL/min. Besides, the “Macro rate constant k a” value in data set [1] (p.o., one-compartment model) is reported as 0.031 min^–1. In addition, the V ss in data set [1] (total body surface of 0.0357 m^2) is recorded as 82.69 L/m^2. The molecule further showed a GI50 in data set [2] of 49 nM. Further, in data set [3] (setting [6]), the “proportion” value is given as 20–30%.
